Structures can show the parent of a compound that is named as a salt.
Tests used:
[1] = test system: Male Sprague-Dawley rats; experiment: Rat Carrageenan Foot Pad Edema Test; assay type: in vivo; conditions: dosed orally one hour before carrageenan, foot volume three hours after carrageenan
Description: Rat Carrageenan Foot Pad Edema Test
The carrageenan foot edema test was performed with materials, reagents and procedures essentially as described by Winter, et al., (Proc. Soc. Exp. Biol. Med., 111, 544 (1962)). Male Sprague-Dawley rats were selected in each group so that the average body weight was as close as possible. Rats were fasted with free access to water for over sixteen hours prior to the test. The rats were dosed orally (1 mL) with compounds suspended in vehicle containing 0.5% methylcellulose and 0.025% surfactant, or with vehicle alone. One hour later a subplantar injection of 0.1 mL of 1% solution of carrageenan/sterile 0.9% saline was administered and the volume of the injected foot was measured with a displacement plethysmometer connected to a pressure transducer with a digital indicator. Three hours after the injection of the carrageenan, the volume of the foot was again measured. The average foot swelling in a group of drug-treated animals was compared with that of a group of placebo-treated animals and the percentage inhibition of edema was determined (Otterness and Bliven, Laboratory Models for Testing NSAIDs, in Non-steroidal Anti-Inflammatory Drugs, (J. Lombardino, ed. 1985)).

[2] = test system: Male Sprague-Dawley rats; experiment: Rat Carrageenan-induced Analgesia Test; assay type: in vivo; conditions: dosed orally, inhibition of hyperalgesic foot withdrawal, three hours after carrageenan
Description: Rat Carrageenan-induced Analgesia Test
The rat carrageenan analgesia test was performed with materials, reagents and procedures essentially as described by Hargreaves, et al., (Pain, 32, 77 (1988)). Male Sprague-Dawley rats were treated as previously described for the Carrageenan Foot Pad Edema test. Three hours after the injection of the carrageenan, the rats were placed in a special plexiglass container with a transparent floor having a high intensity lamp as a radiant heat source, positionable under the floor. After an initial twenty minute period, thermal stimulation was begun on either the injected foot or on the contralateral uninjected foot. A photoelectric cell turned off the lamp and timer when light was interrupted by paw withdrawal. The time until the rat withdraws its foot was then measured. The withdrawal latency in seconds was determined for the control and drug-treated groups, and percent inhibition of the hyperalgesic foot withdrawal determined.

[3] = In vitro conversion of prodrugs by S9 liver fractions; assay type: in vitro ADME; conditions: purified S9 fractions (3 mg/ml), compound 10 ug/ml, 37° C., pH 7.2, 90 minutes, HPLC
Description: IN VITRO CONVERSION OF PRODRUGS
The conversion of the prodrugs by S9 liver fractions was determined by the following method. The S9 liver-fraction suspension (IIAM) was thawed and the suspension was stirred by vortex. The suspension was mixed with 12M urea at 1:7, v:v, (yielding […] final concentration) and further stirred by vortex. The S9 suspension solution was partially purified by solid phase extraction (Vac-Elut apparatus:C18 columns (Varian #1210-2001)) eluting with acetonitrile. The fractions were mixed by vortex and concentrated to dryness under nitrogen (no heat). The fractions were resuspended in 100 μl acetonitrile:phosphate buffer (8.3 mM, pH 7.2) (20:80).
The compounds were dissolved in water (0.2 ml, 10 ug/ml) and incubated at 37° C. (pH 7.2, 90 minutes) with purified S9 fractions (0.2 ml, 3 mg/ml). Conversion of the prodrug to the active COX-2 inhibitor was followed by HPLC (Beckmann System Gold, Novapak C18 column (3.9×150 mm), acetonitrile:phosphate buffer (8.3 mM, pH 7.2) (20:80-40:60), UV detection 240 nm). Quantitation of the conversion of the prodrug was determined by measurement of integrated HPLC peak area.

melting point [°C]	Metabolism of Prodrugs: Parent (% remaining) [3] [%]	Structure (SMILES)	other results
144 to 145		CC(=O)NS(=O)(=O)c1ccc(-c2c(-c3cccc(F)c3)noc2C)cc1 [Example 13, N-[[4-[3-(3-Fluorophenyl)-5-methylisoxazol-4-yl]phenyl]sulfonyl]acetamide]	RAT PAW EDEMA % Inhibition @ 30 mg/kg body weight [1]: 58%; ANALGESIA % Inhibition @ 10 mg/kg body weight [2]: 61.5%
	63.4	CC(=O)NS(=O)(=O)c1ccc(-c2c(-c3cccc(F)c3)noc2C)cc1 [Example 14, N-[[4-[3-(3-Fluorophenyl)-5-methylisoxazol-4-yl]phenyl]sulfonyl]acetamide, Sodium Salt]	RAT PAW EDEMA % Inhibition @ 30 mg/kg body weight ([1]; Sodium Salt): 65%; ANALGESIA % Inhibition @ 10 mg/kg body weight ([2]; Sodium Salt): 41%
	3.3	CCC(=O)NS(=O)(=O)c1ccc(-c2c(-c3ccccc3)noc2C)cc1 [Example 18, N-[[4-(5-Methyl-3-phenylisoxazol-4-yl]phenyl]sulfonyl]propanamide, Sodium Salt]	
161.9 to 162.7		CC(=O)NS(=O)(=O)c1ccc(-n2nc(C(F)(F)F)cc2-c2ccc(Cl)cc2)cc1 [Example 37, N-[[4-[5-(4-Chlorophenyl)-3-(trifluoromethyl)-1H-pyrazol-1-yl]phenyl]sulfonyl]acetamide]	
139.7 to 140.9		COCCC(=O)NS(=O)(=O)c1ccc(-c2c(-c3ccccc3)noc2C)cc1 [Example 29, 3-Methoxy-N-[[4-(5-methyl-3-phenylisoxazol-4-yl)phenyl]sulfonyl]propanamide]	
134.1 to 136.5		CCCCC(=O)NS(=O)(=O)c1ccc(-c2c(-c3ccccc3)noc2C)cc1 [Example 26, N-[[4-(5-Methyl-3-phenylisoxazol-4-yl)phenyl]sulfonyl]pentanamide]	
	0.8	CCCC(=O)NS(=O)(=O)c1ccc(-c2c(-c3ccccc3)noc2C)cc1 [Example 25, N-[[4-(5-Methyl-3-phenylisoxazol-4-yl)phenyl]sulfonyl]butanamide, Sodium Salt]	RAT PAW EDEMA % Inhibition @ 30 mg/kg body weight [1]: 60%; ANALGESIA % Inhibition @ 10 mg/kg body weight [2]: 33%
217 to 218		CCC(=O)NS(=O)(=O)c1ccc(-n2cc(C(F)(F)F)nc2-c2cccnc2C)cc1 [Example 84, N-[[4-[2-(2-Methylpyridin-3-yl)-4-trifluoromethylimidazol-1-yl]phenyl]sulfonyl]propanamide]	
174		CNS(=O)(=O)c1ccc(-n2cccc2-c2ccc(F)cc2)cc1 [Example 78, 4-[2-(4-Fluorophenyl)-1H-pyrrol-1-yl]-N-methylbenzenesulfonamide]	

— patent publication US6815460B2, “Process for preparing prodrugs of benzenesulfonamide-containing cox-2 inhibitors” (Pharmacia Corporation, priority 1996, dated 2004)
